This is an account of results in patent US7727530B2, “Anti-cancer composition comprising proline or its derivatives and an anti-tumour antibody” (priority 2004, dated 2010).

Holding throughout (type): cell-based
The test system of test [1] is Colo205 colon cancer cells. As to the kind of experiment: MTT proliferation (chemosensitivity) assay, Colo205.
In test [2] the test system is A431 epidermoid carcinoma. Nature of the test: MTT proliferation (chemosensitivity) assay, A431. The settings on record: A431 EGFR-overexpressing cell line. On the procedure: (§1) MTT proliferation tests were performed as described. The proliferation control of both the untreated cells and the CHP pre-treated cells is set to 100%.
(§2) Unless otherwise indicated, all cell lines were obtained from the American Type Culture Collection (ATCC, Rockville, Md.) and grown to confluent monolayers in RPMI-1640 bicarbonate medium (Seromed, Berlin, Germany) in a humidified incubator (5% CO2, 37° C.). Cells were checked for mycoplasma contamination. The medium was supplemented with 10% heat-inactivated foetal bovine serum (Seromed) and 4 mM glutamine. The cells were subcultured by trypsination (0.03% trypsin containing 0.02% EDTA, three times a week). Cells numbers were counted using a TOA Sysmex microcellcounter (TOA, Tokyo, Japan).
(§3) 10^4 cells/well were distributed into 96-well microtitre plates (100 μl medium) and the compounds to be tested were added in another 100 μl volume. All compounds were diluted in triplicate or in most cases in quadruplicate. Plates were incubated under tissue culture conditions for 4 days, except those for tests investigating the relationship between application time and response, and cell viability was measured using a modified MTT assay (formazane dye formation from tetrazolium salts by mitochondrial reduction; EZ4U, Biomedica, Vienna, Austria), assessing mitochondrial activity and thereby cell viability/cell numbers. […]

The test system of another test is WI38 normal fibroblasts. Nature of the test: MTT proliferation (chemosensitivity) assay, WI38. The following applies: W138. On the procedure: as §1, §2, §3
A further test concerns HT29 colon cancer cells. As to the kind of experiment: MTT proliferation (chemosensitivity) assay, HT29. The settings on record: high concentrations of Cetuximab. On the procedure: as §1, §2, §3
Another test concerns EGFR. As to the kind of experiment: EGFR expression of A431 cells after CHP pre-incubation. The settings on record: A431 cells pre-incubated with CHP.
In test [3] the test system is MIAPaCa2 pancreatic cancer cell line. As to the kind of experiment: MTT proliferation (chemosensitivity) assay, MIAPaCa2. The procedure:
as §1, §2
(§4) 10^4 cells/well were distributed into 96-well microtitre plates (100 μl medium) and the compounds to be tested were added in another 100 μl volume. All compounds were diluted in triplicate or in most cases in quadruplicate. Plates were incubated under tissue culture conditions for 4 days, except those for tests investigating the relationship between application time and response, and cell viability was measured using a modified MTT assay (formazane dye formation from tetrazolium salts by mitochondrial reduction; EZ4U, Biomedica, Vienna, Austria), assessing mitochondrial activity and thereby cell viability/cell numbers. In brief, the supplied substrate was diluted in an activator solution and 20 μl of the mixture added per well for 2 hrs. The optical density was measured at 450 nm using an empty well as reference in a microplate reader (Eurogenetics, Brussels, Belgium). For each cell line, 8 wells were used to measure the MTT signal of the medium control without test substances and the proliferation in the test wells was calculated in relation to these control values set to 100%. Test results were recorded between 0.3 and 1.5 optical densities for slowly and rapidly proliferating cells respectively.
Experiments using pre-incubation with CHP were performed using more cell lines, namely BxPC3 and MIAPaCa2 pancreatic cancer cell lines. […]

The test system of test [4] is colo250 colon cancer cell lines. Nature of the test: CHP with analytical EGFR-antibody, inhibition of proliferation. The settings on record: read-out: Inhibition of the control in %. The procedure: as §1, §2, §3
For a further test, the system named is DLD1 colon cancer cells. As to the kind of experiment: MTT proliferation (chemosensitivity) assay, DLD1. The settings on record: high concentrations of Cetuximab. The procedure:
as §1, §2, §3

The next test concerns SW620 colon cancer cells. As to the kind of experiment: MTT proliferation (chemosensitivity) assay, SW620. On the procedure: as §1, §2
as §4, with “100%.” for “100%. Test results were recorded between 0.3 and 1.5 optical densities for slowly and rapidly proliferating cells respectively.”
SW620chp4 and A431chp4 cells represent cells pre-treated with 400 μg/ml CHP for 5 days under tissue culture conditions.

Setting [5] is: Homo sapiens, COLO 205, read-out: proliferation activity (% of control).
Setting [6] is: Homo sapiens, read-out: proliferation activity (% of control).
The mark [7] stands for this setting: Homo sapiens, SW-620, read-out: proliferation activity (% of control).

A word on the inhibition: it is the change of the read-out against control, counted positive when it falls.

On to `CCOC(=O)[C@@H]1CC(O)CN1C` (stereo partly shown) [A1.21, 4-hydroxy-1-methyl-proline ethyl ester], for which, in [1] (Colo 205 cells pre-incubated with the derivative 50 μg/ml for 5 days, then Cetuximab, Cetuximab concentrations not given), the “proliferation activity (% of control)” value came out at 94.5 ± 1.7%.
Consider `O=C(O)[C@@H]1C[C@H](O)CN1` [CHP, Cis-4-hydroxy-L-proline], for which the “interaction of CHP pre-incubation with Cetuximab” value in [2] is given as “antagonistic interaction”. Besides, the “interaction with Cetuximab, sequential combination (CHP pre-treatment)” value in the test with WI38 normal fibroblasts, in the test on HT29 colon cancer cells and in the test on DLD1 colon cancer cells was “antagonistic effects” throughout. Moreover, the “expression of EGFR” value in the test on EGFR is “reduced expression of EGFR”. Also, the “interaction CHP-Cetuximab, pre-incubation with CHP 200 μg/ml” value in test [3] is given as “antagonistic interaction”. In test [3] (400 μg/ml CHP for 5 days), the “interaction with Rituximab, CHP pre-treatment” value is “synergy”. Further, the “interaction Avastatin-CHP pre-incubation” value in test [3] (high concentrations of Avastatin) is on record as “Slightly synergistic effects”; in test [1] (Colo205, high concentrations of Avastatin), “Slightly synergistic effects”. For the same compound, in test [4] (CHP 200 μg/ml alone), the inhibition at 200 µg/mL came out at 7.3 ± 8.1%. For the same compound, the inhibition at 100 µg/mL in [4] (CHP100, CHP 100 μg/ml alone) was found to be 2.9 ± 10.1%. Moreover, the “interaction with Cetuximab, direct combination” value was “antagonistic” in test [1] (C205, CHP 400 μg/ml, at 5 and […] (printed as concentrations of CHP)); “no significant interaction” in [1] (C205, CHP 400 μg/ml, other concentrations); “antagonistic” in test [1] (Colo205 cells, higher concentrations of CHP (50, 200 and 400 μg/ml), Cetuximab 40 μg/ml); “antagonistic” with SW620 colon cancer cells (SW620 cells, low concentrations of CHP (6.3-50 μg/ml), Cetuximab 40 μg/ml). Also, the activity at 12.5 µg/mL in test [1] (setting [5]) is 92.2 ± 1.4%; in the test on SW620 colon cancer cells (setting [7]), 98.7 ± 3%. The activity at 25 µg/mL is 94.4 ± 6.2% in test [1] (setting [5]) and 92.3 ± 0.9% in the test with SW620 colon cancer cells (setting [7]). The results for the activity at 50 µg/mL (in test [1] (setting [5]); in the test on SW620 colon cancer cells (setting [7])) were 84.2 ± 2.1% and 91.9 ± 4.1%, respectively. For the same compound, the activity at 200 µg/mL in test [1] (setting [5]) amounted to 15.7 ± 1%; with SW620 colon cancer cells (setting [7]) it was 69.9 ± 2.6%. The activity at 400 µg/mL in [1] (setting [5]) was determined as 9.9 ± 0.4%; in the test on SW620 colon cancer cells (setting [7]), 51.3 ± 3.7%. For the same compound, the activity at 100 µg/mL in [1] (setting [6]) stood at 45.5 ± 3.2%; with SW620 colon cancer cells (setting [6]) it was 85.2 ± 0.7%.
